# Source: patent US5750782A, “Nitroaniline derivatives and their use as anti-tumour agents” (priority 1996, dated 1998)
# Tests used:
# AA8 = assay: Growth inhibition (IC50), AA8 cells, aerobic; type: cell-based; conditions: 18 h exposure
# Method: (§1) Growth inhibition studies were performed as described in detail elsewhere (W.R. Wilson, R.F. Anderson and W.A Denny. J Med. Chem., 1989, 32, 23; G.J. Finlay, B.C. Baguley and W.R. Wilson. Anal Biochem., 1984, 139, 172.), using 200 viable AA8 or 300 viable UV4 cells plus 5000 lethally-irradiated AA8 feeder cells per well in 96-well tissue culture dishes. AA8 and UV4 cells were maintained in logarithmic-phase growth in […] tissue culture flasks with subculture twice weekly by trypsinization. The growth medium was antibiotic-free α-MEM with 10% v/v heat-inactivated ([…], 40 min) fetal calf serum. Doubling times were approximately 14h for AA8 and 15h for UV4 cells.
# AA8 and UV4 cell lines = assay: Ratio of IC50 values against AA8 and UV4 cell lines (HFair); type: cell-based; conditions: 18 h exposure
# Method: as §1
# Ratio of IC50 values for a compound after exposure as detailed above against AA8 and UV4 cell lines (HF=IC50 (AA8)/IC50 (UV4)).
# UV4 cells = assay: Clonogenic assay, UV4 cells (CT10), aerobic and hypoxic; type: cell-based; conditions: for CT10 ratio (air/N2): UV4 cells, aerobic CT10/hypoxic CT10; for CT10 (UV4): air, concentration x time to reduce UV4 cell survival to 10% of control
# From the text: The product (in μM-hr) of the drug concentration times the exposure time to reduce cell survival to 10% of control values in the clonogenic assay.
# Ratio of CT10 values after exposure of UV4 cells as detailed above under either aerobic (air) or hypoxic (N2) conditions (=aerobic CT10 /hypoxic CT10).
# UV4 = assay: Growth inhibition (IC50), UV4 cells, aerobic; type: cell-based; conditions: air, 18 h exposure
# Method: as §1
# UV4 cell line = assay: Ratio of IC50 values against UV4 cell line in presence and absence of E. coli nitroreductase enzyme NTR-2; type: cell-based; conditions: air, ratio of IC50 in presence and absence of E. coli nitroreductase NTR-2, 1080 min
# Method: as §1
# Ratio of IC50 values for a compound after exposure as detailed above against the UV4 cell line in the presence and absence of the E. coli nitroreductase enzyme NTR-2.
# V79 cells = conditions: +Nitroreductase alone (2 μg/ml); 2 h, 37° C
# Method: The nitroreductase concentration was 2 μg/ml and NADH was used as a co-factor. The initial cell density was 2×10^5 /mL.
Molecule,IC50 (AA8; air),HF (air) = IC50 (AA8)/IC50 (UV4) (AA8 and UV4 cell lines),CT10 ratio (air/N2) (UV4 cells),CT10 (UV4) (UV4 cells),IC50 (UV4),HF (NR-2) (UV4 cell line),"IC50 (AA8; Cricetulus griseus, CHO-AA8, air)",IC50 (UV4; Cricetulus griseus),% SURVIVAL (V79 cells)
"CN(C)CCNC(=O)c1c([N+](=O)[O-])ccc(N(CCCl)CCCl)c1[N+](=O)[O-] [Compound 22, N-(N,N-dimethylaminoethyl) 3-[N,N-bis(2-chloroethyl)amino]-2,6-dinitrobenzamide]",426 µM,3.2,130,3600 μM-h,–,–,–,–,–
"NS(=O)(=O)c1cc(N(CCCl)CCCl)c([N+](=O)[O-])cc1[N+](=O)[O-] [Compound 18, 5-[N,N-bis(2-chloroethyl)amino]-2,4-dinitrobenzenesulfonamide]",3 µM,–,–,–,–,–,–,–,–
"NC(=S)c1cc(N(CCCl)CCCl)c([N+](=O)[O-])cc1[N+](=O)[O-] [Compound 13, 5-[N,N-bis(2-chloroethyl)amino]-2,4-dinitrothiobenzamide]",> 25 µM,> 2,> 3,> 60 μM-h,–,–,–,–,–
"CN(C)C(=O)c1cc(N(CCCl)CCCl)c([N+](=O)[O-])cc1[N+](=O)[O-] [Compound 9, N,N-dimethyl [N,N-bis(2-chloroethyl)amino]-2,4-dinitrobenzainide]",310 µM,1.4,> 20,> 3500 μM-h,–,–,–,–,–
"NC(=O)c1cc([N+](=O)[O-])cc([N+](=O)[O-])c1N(CCCl)CCCl [Compound 19, 2-[N,N-bis(2-chloroethyl)amino]-3,5-dinitrobenzamide]",> 100 µM,ca. 3,> 5,> 300 μM-h,–,–,–,–,–
"CN(C)CCNC(=O)c1cc([N+](=O)[O-])c(N(CCCl)CCCl)c([N+](=O)[O-])c1 [Compound 24, N-(N,N-dimethylaminoethyl) 4-[N,N-bis(2-chloroethyl)amino]-3,5-dinitrobenzamide]",62 µM,2.0,> 1,> 273 μM-h,–,–,–,–,–
"O=C(NCCN1CCOCC1)c1cc(N(CCCl)CCCl)c([N+](=O)[O-])cc1[N+](=O)[O-] [Compound 12, N-[2-(morpholino)ethyl][N,N-bis(2-chloroethyl)amino]-2,4-dinitrobenzainide]",920 µM,3.0,45,3700 μM-h,–,–,–,–,–
"NC(=O)c1cc(N(CCBr)CCBr)c([N+](=O)[O-])cc1[N+](=O)[O-] [Compound 2, 5-[N,N-bis(2-bromoethyl)amino]-2,4-dinitrobenzamide]",57 µM,7.5,20,160 μM-h,10.9 µM,32.3,–,–,–
"CS(=O)(=O)OCCN(CCOS(C)(=O)=O)c1cc(C(N)=O)c([N+](=O)[O-])cc1[N+](=O)[O-] [Compound 4, 5-[N,N-bis(2-methanesulfonoxyethyl)amino]-2,4-dinitrobenzamide]",–,–,17,1200 μM-h,–,10.0,> 200 µM,99 µM,–
"O=C(O)c1cc(N(CCCl)CCCl)c([N+](=O)[O-])cc1[N+](=O)[O-] [Compound 6, 5-[N,N-bis(2-chloroethyl)amino]-2,4-dinitrobenzoicacid]",10600 µM,1.5,> 2,> 30000 μM-h,317 µM,0.76,–,–,–
"NC(=O)c1cc(N(CCI)CCI)c([N+](=O)[O-])cc1[N+](=O)[O-] [Compound 3, 5-[N,N-bis(2-iodoethyl)amino]-2,4-dinitrobenzamide]",34 µM,2.6,42,170 μM-h,15 µM,73.8,–,–,–
"C[N+](C)([O-])CCNC(=O)c1cc(N(CCCl)CCCl)c([N+](=O)[O-])cc1[N+](=O)[O-] [Compound 14, N-(N^1,N^1-dimethylaminoethyl) [N,N-bis(2-chloroethyl)amino]-2,4-dinitrobenzamide N^1-oxide]",7300 µM,1.7,< 10,< 14400 μM-h,–,–,–,–,–
"CN(C)CCNC(=O)c1cc([N+](=O)[O-])cc([N+](=O)[O-])c1N(CCCl)CCCl [Compound 20, N-(N,N-dimethylaminoethyl) 2-[N,N-bis(2-chloroethyl)amino]-3,5-dinitrobenzamide]",150 µM,14,36,1200 μM-h,–,–,–,–,–
"NC(=O)c1cc([N+](=O)[O-])c(N(CCCl)CCCl)c([N+](=O)[O-])c1 [Compound 23, 4-[N,N-bis(2-chloroethyl)amino]-3,5-dinitrobenzamide]",97 µM,1.4,> 1,> 450 μM-h,–,–,–,–,–
"O=C(O)CCNC(=O)c1cc(N(CCCl)CCCl)c([N+](=O)[O-])cc1[N+](=O)[O-] [Compound 15, N-(2-carboxyethyl) 5-[N,N-bis(2-chloroethyl)amino]-2,4-dinitrobenzamide]",6100 µM,1.1,2,14000 μM-h,–,–,–,–,–
"O=C(NCC(O)CO)c1cc(N(CCCl)CCCl)c([N+](=O)[O-])cc1[N+](=O)[O-] (centres unmarked) [Compound 17, N-(2,3-dihydroxypropyl)5-[N,N-bis(2-chloroethyl)amino]-2,4-dinitrobenzarnide]",1790 µM,3.2,14,3340 μM-h,–,–,–,–,–
"O=C(c1cc(N(CCCl)CCCl)c([N+](=O)[O-])cc1[N+](=O)[O-])N1CCOCC1 [Compound 10, N-morpholino [N,N-bis(2-chloroethyl)amino]-2,4-dinitrobenzamiide]",264 µM,23,1.6,156 μM-h,–,–,–,–,–
"N#Cc1cc(N(CCCl)CCCl)c([N+](=O)[O-])cc1[N+](=O)[O-] [Compound 7, 5-[N,N-bis(2-chloroethyl)aminol]-2,4-dinitrobenzonitrile]",24 µM,6.8,8.5,86 μM-h,2.3 µM,9.2,–,–,–
"NC(=O)c1c([N+](=O)[O-])ccc(N(CCCl)CCCl)c1[N+](=O)[O-] [Compound 21, 3-[N,N-bis(2-chloroethyl)amino]-2,6-dinitrobenzamide]",> 240 µM,> 2,> 3,> 300 μM-h,–,–,–,–,–
"Nitroreductase: E. coli nitroreductase (protein, UniProt P38489 1-217, looked up) Oxygen-insensitive NAD(P)H …: MDIISVALKRHSTKAFDASKKLTPEQAEQIKTLLQYSPSSTNSQPWHFIVASTEEGKARVAKSAAGNYVFNERKMLDASHVVVFCAKTAMDDVWLKLVVDQEDADGRFATPEAKAANDKGRKFFADMHRKDLHDDAEWMAKQVYLNVGNFLLGVAALGLDAVPIEGFDAAILDAEFGLKEKGYTSLVVVPVGHHSVEDFNATLPKSRLPQNITLTEV",–,–,–,–,–,–,–,–,94%
